# Measured values: PubChem BioAssay (NCI)
# Several values for one entry are separate records, joined by “and”; a condition that tells them apart may be missing. Equal entries are not always repeated.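 Each compound was tested at five concentrations against cells in 96-well plates for 48 hours. GI50: concentration for 50% inhibition of growth. Definition used: TGI = concentration required for complete inhibition of growth.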
# Columns and labels:
# Test in all cases: NCI anticancer screen, dose series, 48 h
# SF-539 CNS = tested on: SF-539 CNS
# SN12C renal = tested on: SN12C renal
# HL-60(TB) leukemia = tested on: HL-60(TB) leukemia
# EKVX NSCLC = tested on: EKVX NSCLC
# CCRF-CEM leukemia = tested on: CCRF-CEM leukemia
# MDA-MB-231 breast = tested on: MDA-MB-231 breast
# SNB-75 CNS = tested on: SNB-75 CNS
# COLO 205 colon = tested on: COLO 205 colon
SMILES,GI50 (SF-539 CNS),TGI (SF-539 CNS),GI50 (SN12C renal),TGI (SN12C renal),GI50 (HL-60(TB) leukemia),TGI (HL-60(TB) leukemia),GI50 (EKVX NSCLC),TGI (EKVX NSCLC),GI50 (CCRF-CEM leukemia),TGI (CCRF-CEM leukemia),GI50 (MDA-MB-231 breast),TGI (MDA-MB-231 breast),GI50 (SNB-75 CNS),TGI (SNB-75 CNS),GI50 (COLO 205 colon),TGI (COLO 205 colon)
C=C(C)[C@@H]1CC[C@]2(C(=O)OC)CC[C@]3(C)[C@H](CC[C@@H]4[C@@](C)(CCc5nn[nH]n5)[C@H](C(=C)C)CC[C@]43C)[C@@H]12,16.5 µM,30.7 µM,14.7 µM,32.8 µM,19 µM,62.3 µM,19.2 µM,61 µM,6.72 µM,37.2 µM,15.5 µM,30.8 µM,15.9 µM,34.1 µM,19.7 µM,47.9 µM
CCCN1CCC(Oc2cc(Nc3nc(Nc4cccc(F)c4C(N)=O)c4cc[nH]c4n3)c(OC)cc2Cl)CC1,4.13 µM,8.24 µM,3.97 µM,7.99 µM,2.54 µM,8.31 µM,3.1 µM,7.41 µM,3.45 µM,10.1 µM,2.16 µM,5.52 µM,3.22 µM,7.79 µM,0.417 µM,0.806 µM
c1ccc2[nH]c(-c3ccc(Nc4nc(N5CCCC5)nc5[nH]ncc45)cc3)nc2c1,1.05 µM,2.24 µM,1.67 µM,4.15 µM,0.216 µM,0.517 µM,1.45 µM,3.12 µM,0.294 µM,0.967 µM,,,1.28 µM,2.76 µM,0.217 µM,0.486 µM
CCOc1ccc2nc3cc(N)ccc3c(N)c2c1,2.66 µM and 1.79 µM,13.6 µM and 6.38 µM,0.661 µM and 0.298 µM,6.45 µM and 2.1 µM,19.8 µM and 20.2 µM,42.2 µM and 43.7 µM,9.76 µM and 7.63 µM,36.7 µM and 41.4 µM,3.43 µM and 4.22 µM,17.1 µM and 20.9 µM,10.2 µM and 4.44 µM,22.8 µM and 17.6 µM,2.86 µM and 14.1 µM,8.78 µM and 28.4 µM,3 µM and 1.25 µM,13.4 µM and 4.69 µM
COc1cc2c(cc1OCCCCCOc1ccc(-c3nc4ccccc4s3)cc1)N=C[C@@H]1CCCN1C2=O,1.58 µM,6.09 µM,2.95 µM,18.9 µM,1.35 µM,8.72 µM,5.66 µM,> 21.2 µM,2.48 µM,> 100 µM,1.02 µM,4.2 µM,6.57 µM,59.8 µM,1.32 µM,6.53 µM
COCCn1c(Nc2ccc(C(=O)NO)cc2)nc2ccccc21,4.56 µM,25.1 µM,7.28 µM,47.4 µM,3.63 µM,> 100 µM,1.89 µM,21.4 µM,3.52 µM,> 100 µM,4.65 µM,44.7 µM,2.62 µM,19.1 µM,2.75 µM,7.88 µM
C=CCn1c(SCC(=O)Nc2ccc(C(=O)/C=C/c3cc(OC)c(OC)c(OC)c3)cc2)nnc1-c1cc(OC)c(OC)c(OC)c1,2.52 µM,8.83 µM,4.74 µM,> 100 µM,2.88 µM,33 µM,4.03 µM,33.8 µM,3.33 µM,> 100 µM,3.81 µM,> 100 µM,2.71 µM,27.6 µM,4.94 µM,24.7 µM
OC(c1ccccc1)c1c(-c2ccccc2)[nH]c(-c2ccccc2)c1C(O)c1ccccc1 (stereo unspecified),,6.94 µM,,5.68 µM,,4.24 µM,,13.9 µM,,6.08 µM,,,,,,3.15 µM
